Marks after values point to notes of the source that are not given here.
Experiments:
[1] = system: α-Syn transgenic Parkinson's disease mouse model; test: α-Syn transgenic Parkinson's disease mouse model: microglial reduction (Iba-1); assay type: in vivo; details: 9 months of age; Memantine 10 mg/kg (G3), G4 2 mg/kg, G5 10 mg/kg, G7 2 mg/kg PO QD
Experimental: The test drug was administered once daily (QD) via oral administration (PO) with a solution of 5 ml/kg for 5 months from 4 months to 9 months of age. Motor behavior tests (beam test) and neurological scores (modified Irwin test) were performed at 4 months (before administration), 7 months, and 9 months. After the final behavioral test, tissue samples were taken. Weight was measured on the same day once a week from 4 months of age until the end of the study.
At 9 months of age, the measurement period ended, the mice were anesthetized, and then the experiment was terminated by cardiac puncture according to IACUC guidelines. Mice were perfused transcardially with 0.9% saline for tissue staining, followed by 4% paraformaldehyde until the mice were fixed. The brains were isolated and immobilized by soaking in 4% paraformaldehyde at 4° C. for 24 hours, followed by 30% sucrose added to PBS containing 0.02% sodium azide and stored at 4° C. for 3 days. Brain samples embedded in OCT compounds were sectioned to a thickness of 20 μm using Leica CM1950 (Leica Microsystems, Germany). The sections were stored at 4° C. in a preservation solution until they were stained by antibodies. […]
To assess microgliosis of the cortex, Iba-1-stained brain tissue was imaged in experimental example 10.5 using an immunofluorescence microscope (Olympus, BZ21) in Olympus. Each marker was manually counted to quantify Iba1.

[2] = system: Reserpine-induced fibromyalgia rat model; test: Reserpine-induced fibromyalgia rat model: pain (von Frey test); assay type: in vivo
Experimental: Reserpine-induced fibromyalgia model generation and drug administration were carried out on 6-week-old male SD rats divided into 6 groups as shown in Table 15 below: control group (G1), reserpine+delivery (G2), reserpine+gabapentin 50 mg/kg (G3), reserpine+Example 2 3 mg/kg (G4), 10 mg/kg (G5), and 30 mg/kg (G6). To create a rat fibromyalgia model, reserpine (Sigma-aldrich, 1 mg/kg) dissolved in 0.5% acetic acid was administered subcutaneously once for 3 days from 3 days before the start of the experiment. Beginning on Day 1, the once-daily (QD) delivery body, gabapentin, and embodiment 2 were administered intraperitoneally (IP) or orally (PO) 2 hours before the experiment was performed.
The right hind foot tactile response test (von Frey test) was performed 5 times (before the fibromyalgia model, and on the 1st, 2nd, 4th and 6th days after the model was generated). Before all behavioral tests, rats were accustomed to the environment for 30 minutes, and all experimenters performing behavioral tests were made blind to drug administration information. Before model generation, baseline measurements were performed by performing the von Frey test on all rats. The rat was placed on a wired mesh and placed in a transparent plastic box (20×20×14 cm), and the foot withdrawal threshold was measured by applying a von Frey filament (ascending weight: 0.4, 0.6, 1.4, 2, 4, 6, 8, and 15 g, North Coast) to the middle of the right hind foot to assess foot allodynia.

HepG2 cells = test: TG synthesis inhibition in FFA-treated HepG2 cells; assay type: cell-based, human
[3] = TG synthesis inhibition in FFA-treated HepG2 cells; assay type: cell-based, human; details: human, HepG2 cells, read-out: Cell Viability (% of HepG2 control)
[4] = system: SOD1 G93A transgenic ALS mouse model; test: SOD1 G93A transgenic ALS mouse model: grip strength; assay type: in vivo; details: 30 mg/kg PO QD from 8 weeks of age; vs G2
Experimental: (§1) The test drug was administered once daily (QD) via oral administration (PO) in a solution of 5 mL/kg from 8 weeks of age until death. Body weight was measured weekly, and disease score was measured daily from 8 weeks until the death of the animal. Motor behavior tests (grip strength) and neurological score tests (modified Irwin test) were performed at 9, 11, 13, 15, 17, 19, and 21 weeks, respectively. The survival of the mice was monitored daily.
Grip strength measurements were performed on mice aged 9, 11, 13, 15, 17, 19, and 21 weeks of age. The mouse was placed on a grip strength measurement device (San Diego Instruments, San Diego, USA) in such a way that the mouse grabbed the handle of a small mesh with its front paws. I put the mouse down on the platform and then slowly pulled the handle […] until the mouse released the handle. The device automatically measured the grip strength of the mouse in grams. Five scores per mouse were recorded consecutively in a one-day session.

[5] = system: SOD1 G93A transgenic ALS mouse model; test: SOD1 G93A transgenic ALS mouse model: neurological score; assay type: in vivo; details: 30 mg/kg PO QD; from the 19th week of age onwards; vs G2
Experimental: as §1

[6] = Distribution in the mouse brain (plasma and brain AUC); assay type: in vivo
Experimental: The blood-brain barrier permeability in ICR mice was confirmed by oral administration of 10 mg/kg of test material. Male […] mice were fasted for 15 h prior to administration. The test material was administered at a dose of 10 mg/kg and a volume of 5 mL/kg, and the solvent composition was N-Methyl-2-pyrrolidone (NMP), Polyethylene glycol 400 (PEG 400), and distilled water (D.W) at a volume ratio of 10:40:50(%), respectively. After administration, blood and brain tissue samples were taken by sacrificing mice with carbon dioxide inhalation at each time point corresponding to 1, 4, and 8 hours. Whole blood was collected from the abdominal vena cava, and brain samples were collected after systemic perfusion with saline to remove as much blood as possible.
The distribution ratio in mouse plasma and brain was calculated by calculating the AUC after concentration quantification in each tissue.

BV2 cells = test: Anti-inflammatory efficacy: LPS-induced TNF-α secretion (ELISA); assay type: cell-based; details: 0.1, 0.3, 1 μM pretreatment 1 hour, LPS 100 μg/ml 24 hours; FIG. 2
Experimental: BV2 cells (2×10^4 cells per well) were incubated for 24 hours in a 96-well culture plate. Subsequently, the Example compounds were added in 0.1 μM, 0.3 μM, and 1 μM, respectively, for 1 hour, followed by the addition of LPS 100 μg/ml and incubated for 24 hours. After incubation, conditioned medium (CM) was harvested and centrifuged at 2000 rpm. After separating the supernatant of the solution after centrifugation, the TNF-α secreted from the cell culture medium was measured using the corresponding ELISA kit (LABISKOMA, Seoul, Korea).

[7] = oral 10 mg/kg, samples at 1, 4, 8 hours

| SMILES | number of IBA-1 positive cells in the cerebral cortex [1] | pain improvement efficacy (von Frey test) ([2]; 30 mg/kg PO QD) | sensitivity (foot withdrawal threshold, von Frey test) ([2]; gabapentin 50 mg/kg IP QD, Example 2 3, 10, 30 mg/kg PO QD, days 1, 2, 4, 6) | TG Level (% of HepG2 control) (HepG2 cells; FFA 1 mM + 0.3 μM) | TG Level (% of HepG2 control) (HepG2 cells; FFA 1 mM + 1 μM) | viability at 48 h, 0.3 μM ([3]; FFA 1 mM + 0.3 μM) [%] | viability at 48 h, 1 μM ([3]; FFA 1 mM + 1 μM) [%] | grip strength [4] | neurological scores [5] | Kp ([6]; male, brain/plasma, po, 10 mg/kg) | Aukinf brain [6, 7] [ug*h · g.] | Aukinf plasma [6, 7] [µg·mL·h] | TNF-α secretion induced by LPS (BV2 cells) |
| --- | --- | --- | --- | --- | --- | --- | --- | --- | --- | --- | --- | --- | --- |
| Cc1cc(F)c(C(=O)Nc2cccc(-n3nnc4c3CCC4)n2)cc1-n1cnc(C2CC2)c1 [Example 2, 5-(4-cyclopropyl-1H-imidazole-1-yl)-N-(6-(5,6-dihydrocyclopenta[d][1,2,3]triazole-1 (4H)-yl)pyridine-2-yl)-2-fluoro-4-methylbenzamide] | significantly reduced | significant efficacy | gradually improved over time |  |  |  |  |  |  |  |  |  |  |
| Cc1cc(F)c(C(=O)Nc2cccc(-n3nnc4c3CCCC4)n2)cc1-n1cnc(C2CC2)c1 [Example 3, 5-(4-cyclopropyl-1H-imidazole-1-yl)-2-fluoro-4-methyl-N-(6-(4,5,6,7-tetrahydro-1H-benzo[d][1,2,3]triazole-1-yl)pyridine-2-yl)benzamide] |  |  |  | 117.38 * % of HepG2 control | 106.59 * % of HepG2 control | 99.1 | 93.1 | tended to increase grip strength compared to group G2, and the grip strength increased significantly from 19 weeks | significant decrease in neurological scores compared to G2 | 0.021 | 6.61 ± 1.75 | 320 ± 74.8 | reduced TNF-α secretion at all concentrations compared to Selonsertib |

— patent US20260138969A1 (Korea Research Institute of Chemical Technology, priority 2023, published 2026)
